# From patent US11707442B2, “Antibacterial and antifungal compounds” (The General Hospital Corporation, priority 2015, dated 2023)
# Read-outs that look alike come from different tables or passages of the source.
# Columns and labels:
# [1] = tested on: Salmonella typhimurium strains TA 1535 and TA 1538; settings: for genotoxic potential: Ames test, result in words
# Procedure: The Ames test was conducted using histidine auxotroph Salmonella typhimurium strains TA 1535 and TA 1538. To test mutagenic potential of the synthetic retinoids themselves and their metabolic products, the assay was conducted both with and without rat liver S9 fraction (Moltox, Boone, N.C., USA). Briefly, 100 μl of bacterial overnight cultures was added into 500 μl of phosphate buffer containing a range of amounts of the retinoids dissolved in 10 μl DMSO and with or without 4% S9. After incubation at 37° C. for 1 h, the samples were added into 2 ml of soft agar including 0.5 mM of histidine/biotin, mixed, and poured onto minimal glucose agar plates. The plates were incubated at 37° C. for 48 h, and the revertant colonies were counted. 10 μl DMSO was used as a negative control. […] 5 μg/plate 2-aminoanthracene was used as a positive control for both strains in the metabolic activation system. The test was performed in triplicate.
# MRSA strain MW2 = test: Checkerboard assay (combination); format: cell-based, Staphylococcus aureus; settings: for Fractional inhibitory concentration index (FICI): MRSA strain MW2, synergy FICI ≤ 0.5
# Procedure: Checkerboard assay (e.g., antibiotic synergy test): The antimicrobial or antifungal activity of a combination of a compound of present application with other agents was determined through a checkerboard assay. The checkerboard method for determining synergy of synthetic retinoids with conventional antibiotics can be conducted, for example, as previously described (See, e.g., Rajamuthiah, R. et al. A defensin from the model beetle Tribolium castaneum acts synergistically with telavancin and daptomycin against multidrug resistant Staphylococcus aureus. PLoS ONE 10, e0128576 (2015)) The compounds whose combinations were being tested were arrayed in serial concentrations, vertically for one compound and horizontally for the other compound in the same 96 well microplate. 2-fold serial dilutions of each retinoid were combined with 2-fold serial dilutions of each conventional antibiotic, which created an 8×8 matrix in a 96-well microtiter plate. The rest of the procedure involving addition of pathogen and measurement of growth was carried out as described for measurement of MIC.
# The Fractional Inhibitory Concentration (FIC) index for two compounds, A and B, is defined by the following equation: FIC=((A/MIC^A)+(B/MIC^B)). MIC^A and NIC^B are MICs of compound A or B respectively. (A) is the lowest concentration of compound A in combination with compound B that inhibits growth of a pathogen and (B) is the lowest concentration of compound B that inhibits growth of a pathogen.
# Optical densities at 600 nm were measured after 18 h of incubation at 37° C. The results represent three independent experiments.
# A. baumannii = test: MIC, broth microdilution; format: cell-based, Acinetobacter baumannii; settings: Acinetobacter baumannii, ATCC17978; A. baumannii ATCC 17978; read-out: Minimum inhibitory concentration
# Excerpt: Bacterial strains and growth conditions and persister isolation: methicillin-resistant S. aureus (MRSA) strain MW2 BAA-1707, vancomycin-resistant S. aureus strain VRS 1, 11 clinical S. aureus isolates, 8 clinical Enterococcus faecium isolates, Klebsiella pneumoniae WGLW2 (BEI Resources, Manassas, Va., USA), Acinetobacter baumannii ATCC 17978, Pseudomonas aeruginosa PA14, and Enterobacter aerogenes ATCC 13048 were used to test antimicrobial activity (See Table 1a). S. aureus and E. faecium strains were grown in tryptic soy broth (TSB) (BD, Franklin Lakes, N.J., USA) or brain-heart infusion (BHI) broth (BD, Franklin Lakes, N.J., USA), respectively at 37° C. at 225 rpm. K. pneumoniae, A. baumannii, P. aeruginosa, and E. aerogenes were grown in Luria Bertani (LB) broth (BD, Franklin Lakes, N.J., USA).
# To test the bacterial MICs for compounds described herein, the total volume in each well was 100 μl of test compounds and bacterial cells in MH broth. […] The bacterial concentration was adjusted to an initial OD600 of 0.03. After incubation at 35° C. for 18 hrs, the absorbance was measured at 595 nm in accordance with CLSI document M07-A8. The MICs of antibiotics were determined by the standard microdilution method recommended by the Clinical and Laboratory Standards Institute.
# [2] = tested on: Exponential-phase MRSA cells; test: Killing kinetics assay; format: cell-based, Staphylococcus aureus; settings: 10×MIC, result in words
# Procedure: Killing kinetics assay. An S. aureus overnight culture was diluted 1:10,000 in 25 ml fresh TSB in a 250 ml flask. In order to obtain exponential-phase cells, the diluted cell suspension was incubated at 37° C., with shaking at 225 rpm for 4 h until the OD600 nm was 0.4 (˜2×10^7 CFU/ml). 0.5 ml of the exponential phase cell culture was added to the wells of a 2 ml deep well assay block (Corning Costar 3960) containing 0.5 ml of pre-warmed TSB with twice the desired concentrations of compounds. The assay block was sealed with a gas-permeable Breathe-Easy membrane and incubated at 37° C. shaking at 225 rpm. At specific times, 50 μl samples were removed, serially diluted and spot-plated onto tryptic soy agar (TSA, BD) plates to enumerate the number of cells. These experiments were conducted in triplicate.
# Colony forming unit counts of cells were measured by serial dilution and plating on TSA plates. The data points on the x-axis are below the level of detection (2×10^2 CFU/mL). Results are shown as means±s.d.; n=3.
# S. aureus = test: Minimal inhibitory concentration (MIC), broth microdilution; format: cell-based, Staphylococcus aureus; settings: Staphylococcus aureus
# Outline: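 MIC values against methicillin-resistant Staphylococcus aureus were determined by standard broth microdilution following Clinical and Laboratory Standards Institute guidance (CLSI document M07-A8). Each well held 100 μl of test compound plus bacterial cells in MH broth, with the starting OD600 set to 0.03. Plates were incubated 18 hrs at 35° C. and absorbance was then read at 595 nm.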
# [3] = MRSA, 28 clinical MRSA isolates, 28/28 isolates, read-out: MIC
# [4] = S. aureus BF1, read-out: Minimum inhibitory concentration
# [5] = S. aureus BF2, read-out: Minimum inhibitory concentration
# [6] = S. aureus BF3, read-out: Minimum inhibitory concentration
# [7] = S. aureus BF4, read-out: Minimum inhibitory concentration
# [8] = S. aureus BF5, read-out: Minimum inhibitory concentration
# [9] = S. aureus BF6, read-out: Minimum inhibitory concentration
# [10] = S. aureus BF7, read-out: Minimum inhibitory concentration
# [11] = S. aureus BF8, read-out: Minimum inhibitory concentration
# [12] = S. aureus BF9, read-out: Minimum inhibitory concentration
# [13] = S. aureus BF10, read-out: Minimum inhibitory concentration
# [14] = S. aureus BF11, read-out: Minimum inhibitory concentration
# [15] = S. aureus JE2 (wild-type), read-out: MIC
# [16] = S. aureus MW2, read-out: Minimum inhibitory concentration
# [17] = S. aureus NE896 (JE2 yjbH::ϕNΣ)
# [18] = S. aureus NE1645 (JE2 manA::ϕNΣ)
# [19] = S. aureus NE1756 (JE2 graS::ϕNΣ)
# [20] = S. aureus VRS1, read-out: Minimum inhibitory concentration
# [21] = methicillin resistant S. aureus (MRSA) strain MW2, read-out: MIC
smiles,measurement,setting,value
"O=C(O)c1ccc(-c2ccc3cc(O)c(C45CC6CC(CC(C6)C4)C5)cc3c2)cc1 [CD1530, 4-(6-hydroxy-7-tricyclo[3.3.1.13,7]dec-1-yl-2-naphthalenyl)-benzoic acid]",genotoxic potential,[1],did not show significant genotoxic potential
same,Number of revertants (T1535),"[1]; With S9, 5 μg/plate",7 ± 3
same,Number of revertants (T1538),"[1]; With S9, 5 μg/plate",7 ± 3
same,Number of revertants (T1535),"[1]; With S9, 25 μg/plate",7 ± 2
same,Number of revertants (T1538),"[1]; With S9, 25 μg/plate",10 ± 4
same,Number of revertants (T1535),"[1]; With S9, 100 μg/plate",8 ± 2
same,Number of revertants (T1538),"[1]; With S9, 100 μg/plate",8 ± 2
same,Number of revertants (T1535),"[1]; Without S9, 5 μg/plate",7 ± 3
same,Number of revertants (T1538),"[1]; Without S9, 5 μg/plate",3 ± 3
same,Number of revertants (T1535),"[1]; Without S9, 25 μg/plate",7 ± 2
same,Number of revertants (T1538),"[1]; Without S9, 25 μg/plate",4 ± 2
same,Number of revertants (T1535),"[1]; Without S9, 100 μg/plate",8 ± 4
same,Number of revertants (T1538),"[1]; Without S9, 100 μg/plate",4 ± 2
same,interaction with gentamicin,"MRSA strain MW2; MRSA MW2, result in words",significant synergistic antimicrobial activity
same,Fractional inhibitory concentration index (FICI),MRSA strain MW2; in combination with Ciprofloxacin,0.75
same,Fractional inhibitory concentration index (FICI),MRSA strain MW2; in combination with Defensin 1,1
same,Fractional inhibitory concentration index (FICI),MRSA strain MW2; in combination with Gentamicin,0.5
same,Fractional inhibitory concentration index (FICI),MRSA strain MW2; in combination with Rifampicin,0.75
same,Fractional inhibitory concentration index (FICI),MRSA strain MW2; in combination with Vancomycin,1
same,MIC,A. baumannii,> 64 µg/mL
same,killing kinetics,[2],fast killing kinetics
same,MIC,S. aureus; [3],≤ 2 µg/mL
same,MIC,S. aureus; [4],2 µg/mL
same,MIC,S. aureus; [5],1 µg/mL
same,MIC,S. aureus; [6],1 µg/mL
same,MIC,S. aureus; [7],1 µg/mL
same,MIC,S. aureus; [8],1 µg/mL
same,MIC,S. aureus; [9],1 µg/mL
same,MIC,S. aureus; [10],1 µg/mL
same,MIC,S. aureus; [11],1 µg/mL
same,MIC,S. aureus; [12],2 µg/mL
same,MIC,S. aureus; [13],1 µg/mL
same,MIC,S. aureus; [14],1 µg/mL
same,MIC,S. aureus; [15],1.5 µg/mL
same,MIC,S. aureus; [16],1 µg/mL
same,MIC,S. aureus; S. aureus MW2 mutant SP1-8 (graS),1.5 µg/mL
same,MIC,"S. aureus; S. aureus MW2 mutant SP1-48 (graS, manA)",2 µg/mL
same,MIC,"S. aureus; S. aureus MW2 mutant SP1-74 (graS, manA, MW2474)",2 µg/mL
same,MIC,"S. aureus; S. aureus MW2 mutant SP1-100 (graS, manA, MW2474)",2 µg/mL
same,MIC,S. aureus; S. aureus MW2 mutant SP2-13 (yjbH),1.5 µg/mL
same,MIC,"S. aureus; S. aureus MW2 mutant SP2-52 (yjbH, dltB)",1.5 µg/mL
same,MIC,"S. aureus; S. aureus MW2 mutant SP2-59 (yjbH, dltB, manA)",2 µg/mL
same,MIC,"S. aureus; S. aureus MW2 mutant SP2-65 (yjbH, dltB, manA, MW1685)",2 µg/mL
same,MIC,"S. aureus; S. aureus MW2 mutant SP2-100 (yjbH dltB, manA, MW1685)",2 µg/mL
same,MIC,S. aureus; S. aureus MW2 serial passage culture SP1-1 (no mutated gene),1 µg/mL
same,MIC,S. aureus; S. aureus MW2 serial passage culture SP2-1 (no mutated gene),1 µg/mL
same,MIC,S. aureus; [17],2 µg/mL
same,MIC,S. aureus; [18],3 µg/mL
same,MIC,S. aureus; [19],2 µg/mL
same,MIC,S. aureus; [20],1 µg/mL
same,MIC,S. aureus; [21],1 µg/mL
"O=C(O)c1ccc2cc(-c3ccc(O)c(C45CC6CC(CC(C6)C4)C5)c3)ccc2c1 [CD437, 6-(4-hydroxy-3-tricyclo[3.3.1.13,7]dec-1-ylphenyl)-2-naphthalenecarboxylic acid]",genotoxic potential,[1],did not show significant genotoxic potential
same,Number of revertants (T1535),"[1]; With S9, 5 μg/plate",6 ± 3
same,Number of revertants (T1538),"[1]; With S9, 5 μg/plate",9 ± 3
same,Number of revertants (T1535),"[1]; With S9, 25 μg/plate",8 ± 3
same,Number of revertants (T1538),"[1]; With S9, 25 μg/plate",10 ± 2
same,Number of revertants (T1535),"[1]; With S9, 100 μg/plate",8 ± 3
same,Number of revertants (T1538),"[1]; With S9, 100 μg/plate",6 ± 1
same,Number of revertants (T1535),"[1]; Without S9, 5 μg/plate",6 ± 2
same,Number of revertants (T1538),"[1]; Without S9, 5 μg/plate",5 ± 2
same,Number of revertants (T1535),"[1]; Without S9, 25 μg/plate",5 ± 2
same,Number of revertants (T1538),"[1]; Without S9, 25 μg/plate",4 ± 1
same,Number of revertants (T1535),"[1]; Without S9, 100 μg/plate",8 ± 2
same,Number of revertants (T1538),"[1]; Without S9, 100 μg/plate",3 ± 3
same,interaction with defensin 1,"MRSA strain MW2; MRSA MW2, result in words",synergism
same,interaction with gentamicin,"MRSA strain MW2; MRSA MW2, result in words",significant synergistic antimicrobial activity
same,MIC,A. baumannii,> 64 µg/mL
same,killing kinetics,[2],fast killing kinetics
same,MIC,S. aureus; [3],≤ 2 µg/mL
same,MIC,S. aureus; [4],2 µg/mL
same,MIC,S. aureus; [5],1 µg/mL
same,MIC,S. aureus; [6],1 µg/mL
same,MIC,S. aureus; [7],2 µg/mL
same,MIC,S. aureus; [8],1 µg/mL
same,MIC,S. aureus; [9],1 µg/mL
same,MIC,S. aureus; [10],1 µg/mL
same,MIC,S. aureus; [11],1 µg/mL
same,MIC,S. aureus; [12],1 µg/mL
same,MIC,S. aureus; [13],1 µg/mL
same,MIC,S. aureus; [14],1 µg/mL
same,MIC,S. aureus; [15],1.5 µg/mL
same,MIC,S. aureus; [16],1 µg/mL
same,MIC,S. aureus; [17],2 µg/mL
same,MIC,S. aureus; [18],3 µg/mL
same,MIC,S. aureus; [19],2 µg/mL
same,MIC,S. aureus; [20],1 µg/mL
same,MIC,S. aureus; [21],1 µg/mL
